Reference: PubChem BioAssay AID2060498 (Molecular Pharmacology Branch, DTP, NCI, 2025)
pIC50: −log10 of the molar value.

System: 171881-019-R-J1-PDC tumor spheroids, viability
Assay: Anticancer human tumor 171881-019-R-J1-PDC patient-derived invasive breast carcinoma cell line growth inhibition [GQUAD]
Conditions: spheroids with HUVEC and MSC; for pIC50: curve of first compound; for viability, T/C: stronger effect = lower value; active means viability on the fitted dose curve at most 10% of control; inactive means the rest
From the text: DNA G-quadruplex Stabilizer Agents in Combinations in Complex Spheroids
A high-throughput screen of multi-cell type tumor spheroids was designed to identify active combinations of DNA G-quadruplex stabilizer agents and targeted small molecules. Complex spheroids include a stromal component modeled by human endothelial cells (HUVEC) and fibroblasts modeled by human mesenchymal stem cells (MSCs). The concentration ranges selected for each drug and investigational agent were based upon clinically achievable concentrations if the clinical Cmax of the agent was known.
Compounds. The drugs and investigational agents: pidnarulex (CX-5461; NSC782164), APTO-253 (NSC789042), BRACO-19 (NSC847499), peposertib (NSC802822), ceralasertib (NSC780249), elimusertib (NSC800525), camonsertib (NSC841442), AZD-1390 (NSC803789), olaparib (NSC753686), talazoparib (NSC767125), ART-558 (NSC835418), sotorasib (NSC818433), MRTX-1133 (NSC836407), SN-38 (NSC673596), topotecan (NSC609699), etoposide (NSC141540), doxorubicin (NSC123127), gemcitabine (NSC613327), 5-fluorouracil (NSC19893), paclitaxel (NSC125973), vemurafenib (NSC761431), panobinostat (NSC761190), R-306465 (JNJ-16241199; NSC773264), adavosertib (NSC754352), TP-3654 (NSC805149), carboplatin (NSC241240), KSQ-4279 (NSC840948), and staurosporine (NSC755774) were obtained from the National Cancer Institute (NCI) Developmental Therapeutics Program Chemical Repository (34). The FDA-approved anticancer drug set is available from the NCI Developmental Therapeutics Program. […] The stock solutions were prepared in dimethyl sulfoxide (DMSO, Sigma-Aldrich, St. Louis, MO, cat. D2650) at 800-fold the tested concentration and stored at -70 degrees C prior to their use. All drugs and investigational agents were tested over a range starting from a high concentration at or near the clinical Cmax and decreasing in half-log increments. If the clinical Cmax for an agent had not been determined, the highest concentration tested was 10 microM.
2.3 Cell Culture. All cells were maintained in an incubator at 37 degrees C and 5% CO2 with 95% humidity. The PDC lines were cultured according to standard operating procedures established by the NCI PDMR. All PDCs were thawed and cultured in Matrigel-coated flasks prepared with a working solution of 1X Ham's F-12 nutrient mix, without supplementation (Invitrogen, cat. 11765054), 100 U/mL penicillin-streptomycin (Invitrogen, cat. 15140122), and 2.5% Matrigel (Corning Inc., cat. 354248) for the first three passages. The 857933-349-R-J2-PDC line was cultured in 6C/Colon 1B media, which includes advanced DMEM/F-12 (Thermo Fisher Scientific, cat. 12634028), 10 mM HEPES (Thermo Fisher Scientific, cat. 15630080), 1X GlutaMAX supplement (Thermo Fisher Scientific, cat. 35050061), 0.1 mg/mL primocin (InvivoGen, cat. ant-pm-2), 10% defined fetal bovine serum, heat inactivated (HyClone Laboratories Inc., cat. SH30070.03HI), 50% L-WRN conditioned media (ATCC, cat. CRL-3276), 1.25 mM N-Acetyl-L-cysteine (Sigma-Aldrich, cat. A9165), 10 mM nicotinamide (Sigma-Aldrich, cat. N0636), 1X B-27 supplement (Thermo Fisher Scientific, cat. 17504044), 1X N-2 supplement (Thermo Fisher Scientific, cat. 17502048), 10 microM Y-27632 dihydrochloride (Tocris Bioscience, cat. 1254), and 50 ng/mL human EGF recombinant protein (Thermo Fisher Scientific, cat. PHG0311). The 485176-168-R4-J1-PDC line was cultured in Panc media, which includes all 6C/Colon 1B media components plus 100 ng/mL human FGF-10 (Thermo Fisher Scientific, cat. 100-26), 500 nM SB-431542 (Selleckchem, cat. S1067), and gastrin (Tocris, cat. 3006).
[…]

[1] = second compound 0.0316 µM, first compound 0.0316 µM
[2] = second compound 0.0316 µM, first compound 0.316 µM
[3] = second compound 0.1 µM, first compound 0.0316 µM
[4] = second compound 0.1 µM, first compound 0.316 µM
[5] = second compound 0.316 µM, first compound 0.0316 µM
[6] = second compound 0.316 µM, first compound 0.316 µM
[7] = second compound 1 µM, first compound 0.0316 µM
[8] = second compound 1 µM, first compound 0.316 µM
[9] = second compound 3.16 µM, first compound 0.0316 µM
[10] = second compound 3.16 µM, first compound 0.316 µM
[11] = second compound 10 µM, first compound 0.0316 µM
[12] = second compound 10 µM, first compound 0.316 µM
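Further: spheroids exposed to compounds for 7 days.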

CC(C)n1c(=O)n(C)c2cnc3cc(F)c(-c4ccc(OCCCN5CCCCC5)nc4)cc3c21 + CN(C)c1ccc(Nc2c3ccc(NC(=O)CCN4CCCC4)cc3nc3cc(NC(=O)CCN4CCCC4)ccc23)cc1
5.62: pIC50 (second compound 0.0316 µM)
inactive: viability, T/C [1] 95.7% | viability, T/C (second compound 0.0316 µM, first compound 0.1 µM) 100% | viability, T/C [2] 88.1% | viability, T/C (second compound 0.0316 µM, first compound 1 µM) 80.4% | viability, T/C (second compound 0.0316 µM, first compound 3.16 µM) 40.4% | viability, T/C (second compound 0.0316 µM, first compound 10 µM) 12.9% | viability, T/C [3] 93% | viability, T/C (second compound 0.1 µM, first compound 0.1 µM) 108% | viability, T/C [4] 92% | viability, T/C (second compound 0.1 µM, first compound 1 µM) 84.9% | viability, T/C (second compound 0.1 µM, first compound 3.16 µM) 34.3% | viability, T/C [5] 82.2% | viability, T/C (second compound 0.316 µM, first compound 0.1 µM) 79.6% | viability, T/C [6] 69.3% | viability, T/C (second compound 0.316 µM, first compound 1 µM) 37.6% | viability, T/C (second compound 0.316 µM, first compound 3.16 µM) 20.3% | viability, T/C [7] 18.5% | viability, T/C (second compound 1 µM, first compound 0.1 µM) 16.8% | viability, T/C [8] 19.4% | viability, T/C (second compound 1 µM, first compound 1 µM) 8.58%
> 7.50: pIC50 (second compound 1 µM) | pIC50 (second compound 3.16 µM) | pIC50 (second compound 10 µM)
5.66: pIC50 (second compound 0.1 µM)
active: viability, T/C (second compound 0.1 µM, first compound 10 µM) 9.41% | viability, T/C (second compound 0.316 µM, first compound 10 µM) 4.16% | viability, T/C (second compound 1 µM, first compound 3.16 µM) 6.36% | viability, T/C (second compound 1 µM, first compound 10 µM) 1.3% | viability, T/C [9] 1.45% | viability, T/C (second compound 3.16 µM, first compound 0.1 µM) 1.78% | viability, T/C [10] 1.74% | viability, T/C (second compound 3.16 µM, first compound 1 µM) 1.06% | viability, T/C (second compound 3.16 µM, first compound 3.16 µM) 1.03% | viability, T/C (second compound 3.16 µM, first compound 10 µM) 0.15% | viability, T/C [11] 0.27% | viability, T/C (second compound 10 µM, first compound 0.1 µM) 0.4% | viability, T/C [12] 0.34% | viability, T/C (second compound 10 µM, first compound 1 µM) 0.37% | viability, T/C (second compound 10 µM, first compound 3.16 µM) 0.25% | viability, T/C (second compound 10 µM, first compound 10 µM) 0.28%
6.17: pIC50 (second compound 0.316 µM)

Cc1[nH]c2ccccc2c1CCNCc1ccc(/C=C/C(=O)NO)cc1 + CN(C)c1ccc(Nc2c3ccc(NC(=O)CCN4CCCC4)cc3nc3cc(NC(=O)CCN4CCCC4)ccc23)cc1
active: viability, T/C [2] 0.39% | viability, T/C [4] 0.39% | viability, T/C (second compound 0.316 µM, first compound 0.0999 µM) 10.8% | viability, T/C [6] 0.26% | viability, T/C (second compound 1 µM, first compound 0.000999 µM) 4.23% | viability, T/C (second compound 1 µM, first compound 0.00316 µM) 3.43% | viability, T/C (second compound 1 µM, first compound 0.00999 µM) 4.51% | viability, T/C [7] 1.92% | viability, T/C (second compound 1 µM, first compound 0.0999 µM) 0.8% | viability, T/C [8] 0.38% | viability, T/C (second compound 3.16 µM, first compound 0.000999 µM) 0.41% | viability, T/C (second compound 3.16 µM, first compound 0.00316 µM) 0.27% | viability, T/C (second compound 3.16 µM, first compound 0.00999 µM) 0.37% | viability, T/C [9] 0.25% | viability, T/C (second compound 3.16 µM, first compound 0.0999 µM) 0.14% | viability, T/C [10] 0.13% | viability, T/C (second compound 10 µM, first compound 0.000999 µM) 0.18% | viability, T/C (second compound 10 µM, first compound 0.00316 µM) 0.19% | viability, T/C (second compound 10 µM, first compound 0.00999 µM) 0.16% | viability, T/C [11] 0.44% | viability, T/C (second compound 10 µM, first compound 0.0999 µM) 0.27% | viability, T/C [12] 0.17%
7.26: pIC50 (second compound 0.0316 µM)
inactive: viability, T/C (second compound 0.0316 µM, first compound 0.000999 µM) 96.9% | viability, T/C (second compound 0.0316 µM, first compound 0.00316 µM) 104% | viability, T/C (second compound 0.0316 µM, first compound 0.00999 µM) 89.9% | viability, T/C [1] 76.9% | viability, T/C (second compound 0.0316 µM, first compound 0.0999 µM) 22% | viability, T/C (second compound 0.1 µM, first compound 0.000999 µM) 95.4% | viability, T/C (second compound 0.1 µM, first compound 0.00316 µM) 75.1% | viability, T/C (second compound 0.1 µM, first compound 0.00999 µM) 84.5% | viability, T/C [3] 71.8% | viability, T/C (second compound 0.1 µM, first compound 0.0999 µM) 20.2% | viability, T/C (second compound 0.316 µM, first compound 0.000999 µM) 46.9% | viability, T/C (second compound 0.316 µM, first compound 0.00316 µM) 45.1% | viability, T/C (second compound 0.316 µM, first compound 0.00999 µM) 48.8% | viability, T/C [5] 28%
7.29: pIC50 (second compound 0.1 µM)
> 9.00: pIC50 (second compound 0.316 µM) | pIC50 (second compound 1 µM) | pIC50 (second compound 3.16 µM) | pIC50 (second compound 10 µM)
